Blank lines part the entries; values can stand above or below the compound they belong to.
Columns and labels:
Assay type in all cases: physicochemical
[1] = Hygroscopicity: absorption of atmospheric water, measured by TGA; conditions: relative humidity of 80%, 100% at room temperature, non-hygroscopic = less than 0.2% (w/w) absorption of atmospheric water by TGA
From the text: As used herein the term non-hygroscopic in relation to crystalline Eltrombopag refers to less than 0.2% (w/w) absorption of atmospheric water to the crystalline Eltrombopag in the above specified conditions, as measured by TGA.

[2] = Thermo-dynamical stability: conversion to other solid state forms under heating, measured by XRPD; conditions: heating up to 200° C. at 10° C./minute, defined as less than 20%, 5%, 1%, or 0.5% conversion to any other solid state form by XRPD
Protocol: As used herein the term “thermo-dynamical stability” in relation to crystalline Eltrombopag form I refers to less than 20%, 10%, 5%, 1%, or 0.5% conversion of crystalline Eltrombopag form Ito any other solid state form of Eltrombopag under heating up to temperature of 200° C. at a heating rate of 10° C./minute, as measured by XRPD. In some embodiments, the conversion is 1%-20%, 1%-10% or 1%-5%.

[3] = Solubility

hygroscopicity ([1]; at least 10 months): non-hygroscopic
Structure (SMILES): CC1=NN(c2ccc(C)c(C)c2)C(=O)/C1=N\Nc1cccc(-c2cccc(C(=O)O)c2)c1O [Eltrombopag form III]

thermo-dynamical stability [2]: advantageous
solubility ([3]; medium not stated): advantageous
Structure (SMILES): CC1=NN(c2ccc(C)c(C)c2)C(=O)/C1=N\Nc1cccc(-c2cccc(C(=O)O)c2)c1O [Eltrombopag form I]

hygroscopicity ([1]; at least 5 months): non-hygroscopic
Structure (SMILES): CC1=NN(c2ccc(C)c(C)c2)C(=O)/C1=N\Nc1cccc(-c2cccc(C(=O)O)c2)c1O [Eltrombopag form XVI]

solubility in water ([3]; water): highly soluble in water
Structure (SMILES): CC1=NN(c2ccc(C)c(C)c2)C(=O)/C1=N\Nc1cccc(-c2cccc(C(=O)O)c2)c1O [Eltrombopag bisethanolamine form II]
